This is an account of results in PubChem BioAssay (NCI).

Common to all, as to test: NCI tumour cell line growth inhibition, 48 h
In assay [1] the test system is ACHN renal.
Assay [2] relates to HOP-92 NSCLC.
In assay [3] the test system is LOX IMVI melanoma.
Assay [4] has as its system OVCAR-4 ovarian.
The subject of assay [5] is M14 melanoma.
For assay [6], the system named is HCT-116 colon.
Assay [7] has as its system MDA-MB-231 breast.
For assay [8], the system named is NCI/ADR-RES ovarian.
Assay [9] has as its system HOP-62 NSCLC.
Assay [10] concerns DMS 114 small cell lung.
The test system of assay [11] is XF 498 CNS.
The subject of assay [12] is HOP-18 NSCLC.
Assay [13] relates to CCRF-CEM leukemia.

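All cell lines were grown in 96-well plates and treated with compound for 48 hours. GI50 is the concentration that inhibits growth by half. At the TGI there is no net growth.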

`C[P+](c1ccccc1)(c1ccc(Cl)cc1)c1ccc(Cl)cc1`: the TGI in [1] is more than 100 µM; in [2] it was 40.3 µM; in [3], 32.5 µM; in [4], 45.2 µM; in assay [5], 34.4 µM; in [6], 44.9 µM. Moreover, the TGI in assay [7] was 82 µM; in [8] it was more than 100 µM; in assay [9], 70.4 µM.

Consider `C[n+]1c2ccccc2c(CNCC(=O)O)c2ccccc21`, for which the TGI in assay [1] was 2.59 µM; in assay [2], 10.4 µM; in assay [10], 4.83 µM; in assay [11], 3.85 µM; in [12], 22.6 µM; in assay [4] it was 25.2 µM. The TGI in assay [5] amounted to 18.4 µM; in assay [6], 1.3 µM; in assay [9], 19.1 µM.

`c1ccc(-c2n(Cc3ccc4ccccc4c3)c3ccccc3[n+]2Cc2ccc3ccccc3c2)cc1`: the GI50 was 0.975 µM in assay [1]; 0.117 µM in assay [2]; 0.245 µM in assay [4]; 0.289 µM in [7]; 2.21 µM in [8]. Also, the TGI in [1] worked out at 2.36 µM; in assay [2] it was 0.508 µM; in assay [4] it was 0.818 µM; in [7] it was 1.3 µM; in assay [8], 5.93 µM.

Consider `O=C(Nc1ccc(Cl)cc1)c1cc([N+](=O)[O-])ccc1O`, for which the TGI is more than 100 µM in assay [1]; 6.75 µM in assay [10]; 8.72 µM in [11]; 7.16 µM in assay [12]; 19.5 µM in [3]; more than 100 µM in [4]. In addition, the TGI turned out to be 18.9 µM in assay [5], 11 µM in assay [13], 20.8 µM in assay [6] and 9.26 µM in assay [9].

As for `C=CCNC1=C2C[C@@H](C)C[C@H](OC)[C@H](O)[C@@H](C)/C=C(\C)[C@H](OC(N)=O)[C@@H](OC)/C=C\C=C(/C)C(=O)NC(=CC1=O)C2=O`, the TGI in assay [1] amounted to 32.2 µM; in assay [2] it was 15.9 µM; in assay [3], 2 µM; in [4] it was 26.4 µM; in assay [5], 17 µM; in [13], 10.6 µM. Further, the TGI in assay [6] was determined as 26.1 µM; in assay [7], 23.6 µM; in assay [8], 57.3 µM; in assay [9], 23.1 µM.

Take `NC(CCP(=O)(O)O)C(=O)O` (stereo not drawn): the TGI in [1], in assay [2], in assay [3], in assay [4], in [5] and in assay [13] was more than 100 µM each time. The TGI in assay [6], in [7], in assay [8] and in assay [9] was more than 100 µM in each case.

`O=C1c2cccc(O)c2C(=O)c2c(O)cccc21`: the TGI in assay [1], in assay [2], in assay [10], in assay [11], in assay [3] and in [4] was more than 100 µM each time. Besides, the TGI in assay [5], in [13], in assay [6] and in [9] was more than 100 µM each time.

With `CCCCSCC(NC(=O)/C=C/c1c(C)[nH]c(=O)[nH]c1=O)C(=O)OC` (stereo not drawn), the TGI is 189 µM in assay [2]; 271 µM in [10]; 330 µM in assay [12]; more than 450 µM in assay [3]; more than 89 µM in [4]; 245 µM in assay [13]. Further, the figures for the TGI in [6], in assay [8] and in assay [9] were 246 µM, more than 450 µM and 252 µM, respectively.

With `N=C(N)c1ccc(-c2ccc(-c3ccc4ccccc4c3)s2)s1`, the GI50 in [1] is 2.53 µM; in assay [5], 2.45 µM; in assay [7], 1.85 µM; in assay [9] it was 2.08 µM. For the same compound, the TGI stood at 6.66 µM in [1], 5.72 µM in [5], 3.73 µM in assay [7] and 5.24 µM in assay [9].

`CS(=O)(=O)c1ccc2nc(-c3ccc(O)cc3)sc2c1`: the TGI is 32.4 µM in [1]; 45.5 µM in assay [3]; 38.4 µM in assay [5]; more than 100 µM in assay [13]; 30.5 µM in assay [6]; 42.5 µM in assay [7]. For the same compound, in [8], the TGI was found to be 36.2 µM.

As to `CN(C)CCOc1cc2c(c3ccccc13)-c1ccccc1C2O` (stereo not drawn), the TGI came out at 19.5 µM in [2]; 26.2 µM in [10]; 25.7 µM in [11]; 29.5 µM in assay [12]; 23.9 µM in [3]; 32.9 µM in assay [4]. The TGI in assay [13] amounted to 33.1 µM; in assay [6], 26.9 µM; in assay [8], 19.5 µM; in assay [9], 29 µM.

For the compound `CC1C[C@]2(C[C@@H](C)C(=O)O2)OC2CC3(C)C4CCC5C(C)(C)OC(=O)CC[C@@]56C[C@@]46CC[C@]3(C)C12` (stereo partly drawn), the TGI in [1], in assay [2], in assay [10], in assay [11], in [12] and in assay [3] was more than 100 µM throughout. For the same compound, the TGI in assay [4], in assay [5], in assay [13] and in assay [6] was more than 100 µM throughout.

As to `C=CCOCCC(CC=C)C(=O)CC(=O)OC` (stereo not drawn), the TGI in [1], in assay [2], in assay [11], in assay [12], in [3] and in assay [4] was more than 100 µM in each case. Moreover, the TGI in [5], in assay [13], in assay [6] and in [9] was more than 100 µM throughout.

Consider `NC(=O)c1ccc([N+](=O)[O-])cc1`, for which the TGI in assay [10], in assay [11], in assay [3], in assay [5], in assay [13] and in [9] was more than 100 µM in each case.
